This note sets out measurements from US8389679B2, “Targeted antimicrobial moieties” (priority 2009, dated 2013).

In this test the test system is target microorganisms. The test can be described thus: Screen of synthesized peptides for binding to target microorganisms (targeting peptides, Tables 2 and 3). The settings on record: microorganism(s) the targeting peptide was identified as binding to (Table 3). On the procedure:
Once noted, these peptides were batch synthesized on a multiplex peptide synthesizer, yielding 5-10 mg of each peptide that could readily be screened for biological activity (e.g., binding activity and/or antimicrobial activity.
Other suitable targeting peptides include the peptides that have been identified as binding to particular target organisms as shown in Table 3 and/or Table 4.

Entries after “also recorded” stand apart in the source; their conditions may differ.

Take “1T-85 (VMASLTWRMRAASASLPTHSRTDA; synthetic novel tartgeting peptide IT-85)”: the “Target(s)” value is listed as “A. naeslundii, F. nucleatum,; also recorded: P. gingivalis; also recorded: S. epidermidis,; also recorded: S. gordonii, S. mitis, S. mutans,; also recorded: S. oralis, S. salivarious,; also recorded: S. sanguinis”. With “1T-86 (HRKNPVLGVGRRHRAHNVA; synthetic novel tartgeting peptide IT-86)” the entry was “S. mitis, S. oralis, S. salivarious”; with “1T-87 (EAVGQDLVDAHHP; synthetic novel tartgeting peptide IT-87)”, “S. mitis, S. mutans, S. oralis”. Consider “1T-89 (HEDDKRRGMSVEVLGFEVVQHEE; synthetic novel tartgeting peptide IT-89)”, for which the “Target(s)” value is on record as “S. mitis, S. mutans”. As for “1T-90 (RNVIGQVL; synthetic novel tartgeting peptide IT-90)”, the “Target(s)” value is “S. gordonii, S. mitis, S. mutans,; also recorded: S. oralis, S. sanguinis”. With “1T-91 (TSVRPGAAGAAVPAGAAGAAGAGWRWP; synthetic novel tartgeting peptide IT-91)”, the “Target(s)” value is “S. mitis, S. mutans, S. oralis,; also recorded: S. sanguinis”. With “1T-92 (GQDEGQRRAGVGEGQGVDG; synthetic novel tartgeting peptide IT-92)” the entry was “S. mitis, S. mutans”. For the substance “1T-93 (AMRSVNQA; synthetic novel tartgeting peptide IT-93)”, the “Target(s)” value is “S. epidermidis, S. gordonii,; also recorded: S. mitis, S. mutans,; also recorded: S. oralis, S. sanguinis”. As for “1T-94 (DQVAHSGDMLVQARRRDS; synthetic novel tartgeting peptide IT-94)”, the “Target(s)” value is “S. mitis, S. mutans, S. oralis”.

On to “1T-95 (GHLLRVGGRVGGVGGVAGACAQPFGGQ; synthetic novel tartgeting peptide IT-95)”, for which the “Target(s)” value is reported as “S. gordonii, S. mitis, S. mutans,; also recorded: S. oralis, S. sanguinis”.

In the case of “1T-96 (VAGACAQPFGGQ; synthetic novel tartgeting peptide IT-96)”, the “Target(s)” value is listed as “S. gordonii, S. mitis, S. mutans,; also recorded: S. oralis, S. sanguinis”. With “1T-97 (GVAERNLDRITVAVAIIWTITIVGLGLVAKLG; synthetic novel tartgeting peptide IT-97)” the entry was “A. naeslundii, F. nucleatum,; also recorded: P. gingivalis; also recorded: S. epidermidis,; also recorded: S. gordonii, S. mitis, S. mutans,; also recorded: S. oralis, S. salivarious,; also recorded: S. sanguinis”; with “1T-98 (VRSAKAVKALTAAGYTGELVNVSGGMKAWLGQ; synthetic novel tartgeting peptide IT-98)”, “A. naeslundii, F. nucleatum,; also recorded: P. gingivalis; also recorded: S. epidermidis,; also recorded: S. gordonii, S. mitis, S. mutans,; also recorded: S. oralis, S. salivarious,; also recorded: S. sanguinis”; with “1T-99 (MKAWLGQ; synthetic novel tartgeting peptide IT-99)”, “S. gordonii, S. mitis, S. mutans,; also recorded: S. oralis, S. sanguinis”. With “1T-100 (LDPLEPRIAPPGDRSHQGAPACHRDPLRGRSARDAER; synthetic novel tartgeting peptide IT-100)” the entry was “S. gordonii, S. mitis, S. mutans”. With “1T-101 (RLRVGRATDLPLTSFAVGVVRNLPDAPAH; synthetic novel tartgeting peptide IT-101)” the entry was “A. naeslundii, P. gingivalis; also recorded: S. epidermidis,; also recorded: S. gordonii, S. mitis, S. mutans,; also recorded: S. oralis, S. sanguinis”; with “1T-102 (WKRLWPARILAGHSRRRMRWMVVWRYFAAT; synthetic novel tartgeting peptide IT-102)”, “A. naeslundii, F. nucleatum,; also recorded: P. gingivalis; also recorded: S. epidermidis,; also recorded: S. gordonii, S. mitis, S. mutans,; also recorded: S. oralis, S. salivarious,; also recorded: S. sanguinis”. As to “1T-103 (AQFYEAIITGYALGAGQRIGQL; synthetic novel tartgeting peptide IT-103)”, the “Target(s)” value was “A. naeslundii, F. nucleatum,; also recorded: P. gingivalis; also recorded: S. epidermidis,; also recorded: S. gordonii, S. mitis, S. mutans,; also recorded: S. oralis, S. sanguinis”. Take “1T-104 (RAVAAHLQGRHHGHQVRRQRHGQR; synthetic novel tartgeting peptide IT-104)”: the “Target(s)” value is on record as “S. mitis”. With “1T-105 (GEGLPPPVLHLPPPRMSGR; synthetic novel tartgeting peptide IT-105)” the entry was “S. epidermidis, S. gordonii,; also recorded: S. mitis, S. mutans,; also recorded: S. oralis”; with “1T-106 (DALRRSRSQGRRHR; synthetic novel tartgeting peptide IT-106)”, “S. gordonii, S. mitis, S. mutans,; also recorded: S. oralis, S. salivarious”; with “1T-107 (SPVPRFTAVGGVSRGSP; synthetic novel tartgeting peptide IT-107)”, “A. naeslundiiS. epidermidis,; also recorded: S. gordonii,; also recorded: S. mitis, S. mutans, S. oralis,; also recorded: S. salivarious, S. sanguinis”. The entry for “1T-108 (WGPLGPERPLW; synthetic novel tartgeting peptide IT-108)” is “S. gordonii, S. mitis, S. mutans,; also recorded: S. oralis, S. salivarious,; also recorded: S. sanguinis”; for “1T-109 (VTTNVRQGAGS; synthetic novel tartgeting peptide IT-109)” it is “A. naeslundiiS. epidermidis,; also recorded: S. gordonii,; also recorded: S. mitis, S. mutans, S. oralis,; also recorded: S. salivarious, S. sanguinis”.

With “1T-110 (LAAKTAVCVGRAFM; synthetic novel tartgeting peptide IT-110)”, the “Target(s)” value is on record as “A. naeslundii, P. gingivalis; also recorded: S. epidermidis,; also recorded: S. gordonii, S. mitis, S. mutans,; also recorded: S. oralis, S. sanguinis”. Regarding “1T-111 (GRLSRREEDPATSIILLRGAYRMAVF; synthetic novel tartgeting peptide IT-111)”, the “Target(s)” value is listed as “A. naeslundii, F. nucleatum,; also recorded: P. gingivalis; also recorded: S. epidermidis,; also recorded: S. gordonii, S. mitis, S. mutans,; also recorded: S. oralis, S. salivarious,; also recorded: S. sanguinis”. On to “1T-112 (SDNDGKLILGTSQ; synthetic novel tartgeting peptide IT-112)”, for which the “Target(s)” value is “S. gordonii”. The entry for “1T-113 (HGAHQRTGQRLHHHRGRTVSGCRQNPVAGVDPDEHR; synthetic novel tartgeting peptide IT-113)” is “S. mitis”; for “1T-114 (RQAPGPGLVTITAACSAPGSRSR; synthetic novel tartgeting peptide IT-114)” it is “A. naeslundii, P. gingivalis; also recorded: S. epidermidis,; also recorded: S. gordonii, S. mitis, S. mutans,; also recorded: S. oralis, S. sanguinis”; for “1T-115 (LLIERFSNHH; synthetic novel tartgeting peptide IT-115)” it is “A. naeslundii, F. nucleatum,; also recorded: P. gingivalis; also recorded: S. epidermidis,; also recorded: S. gordonii, S. mitis, S. mutans,; also recorded: S. oralis, S. salivarious,; also recorded: S. sanguinis”.

Consider “1T-116 (MILHRRRDR; synthetic novel tartgeting peptide IT-116)”, for which the “Target(s)” value was “A. naeslundii, P. gingivalis; also recorded: S. epidermidis,; also recorded: S. gordonii, S. mitis, S. mutans,; also recorded: S. oralis, S. salivarious,; also recorded: S. sanguinis”.

On to “1T-117 (GPGVVGPAPFSRLPAHALNL; synthetic novel tartgeting peptide IT-117)”, for which the “Target(s)” value is “S. mutans”.
